In brackets after ≈: the same amount, converted by molar mass. Activity calls are given as the source filed them. The rule behind the calls is not given here.
Experiments:
[1] = target: T1, Cannabinoid receptor 1 (Homo sapiens, UniProt P21554); experiment: Agonist activity at human recombinant cannabinoid CB1 receptor expressed in MMY23 Saccharomyces cerevisiae assessed as degradation of FDGlu to fluorescein after 24 hrs by spectrofluorimetry; assay type: functional
[2] = target: T2, Cannabinoid receptor 2 (Homo sapiens, UniProt P34972); experiment: Agonist activity at human recombinant cannabinoid CB2 receptor expressed in MMY23 Saccharomyces cerevisiae assessed as degradation of FDGlu to fluorescein after 24 hrs by spectrofluorimetry; assay type: functional
[3] = target: T2, Cannabinoid receptor 2; experiment: Agonist activity at human recombinant cannabinoid CB2 receptor expressed in MMY23 Saccharomyces cerevisiae assessed as degradation of FDGlu to fluorescein after 24 hrs by spectrofluorimetry relative to HU210; assay type: functional
[4] = target: T1, Cannabinoid receptor 1; experiment: Agonist activity at human recombinant cannabinoid CB1 receptor expressed in MMY23 Saccharomyces cerevisiae assessed as degradation of FDGlu to fluorescein at 30 uM after 24 hrs by spectrofluorimetry; assay type: functional
[5] = species on record: Homo sapiens; experiment: Selectivity ratio of EC50 for human recombinant cannabinoid CB1 receptor to EC50 for human recombinant cannabinoid CB2 receptor
[6] = target: T1, Cannabinoid receptor 1; experiment: Agonist activity at human recombinant cannabinoid CB1 receptor expressed in MMY23 Saccharomyces cerevisiae assessed as degradation of FDGlu to fluorescein after 24 hrs by spectrofluorimetry relative to HU210; assay type: functional
[7] = Intrinsic clearance in human liver microsomes; assay type: ADME, Microsome
[8] = Intrinsic clearance in rat liver microsomes; assay type: ADME, Microsome
[9] = target: Cytochrome P450 1A2 (Homo sapiens, UniProt P05177); experiment: Inhibition of CYP1A2; assay type: ADME
[10] = target: Cytochrome P450 2C9 (Homo sapiens, UniProt P11712); experiment: Inhibition of CYP2C9; assay type: ADME
[11] = target: Cytochrome P450 2C19 (Homo sapiens, UniProt P33261); experiment: Inhibition of CYP2C19; assay type: ADME
[12] = target: Cytochrome P450 2D6 (Homo sapiens, UniProt P10635); experiment: Inhibition of CYP2D6; assay type: ADME
[13] = target: Cytochrome P450 3A4 (Homo sapiens, UniProt P08684); experiment: Inhibition of CYP3A4; assay type: ADME
[14] = Solubility in simulated intestinal fluid at pH 5; assay type: physicochemical
[15] = Dissociation constant, pKa of the compound; assay type: physicochemical
[16] = test system: Rattus norvegicus; experiment: Antihyperalgesic activity in po dosed complete Freund's adjuvant rat model of inflammatory pain assessed as reduction of hypersensitivity administered as single dose; assay type: functional
[17] = test system: Rattus norvegicus; experiment: Analgesic activity in rat joint model of chronic pain at 1 to 10 mg/kg, po BID for 5 days; assay type: functional, organism-based
[18] = Ratio of drug level in brain to blood in mouse; assay type: ADME, tissue-based
[19] = Efflux ratio of apparent permeability […] side of MDR1-expressing MDCK2 cells after 60 mins by liquid scintillation counting; assay type: ADME, cell-based, Canis lupus familiaris; conditions: dog, mdck-ii, 1 h
[20] = test system: Rattus norvegicus; experiment: Analgesic activity in rat joint model of chronic pain at 5 mg/kg, po BID for 5 days; assay type: functional, organism-based; parameters: dose 5 mg/kg
[21] = target: D(1A) dopamine receptor (Homo sapiens) (UniProt P21728); experiment: Binding affinity to human dopamine D1 receptor at 1 uM
[22] = target: D(2) dopamine receptor (Homo sapiens) (UniProt P14416); experiment: Binding affinity to human dopamine D2S receptor at 1 uM
[23] = target: Endothelin-1 receptor (Homo sapiens) (UniProt P25101); experiment: Binding affinity to human ETA receptor at 1 uM
[24] = Binding affinity to GABA receptor at 1 uM
[25] = target: Galanin receptor type 2 (Homo sapiens) (UniProt O43603); experiment: Binding affinity to human GAL2 receptor at 1 uM
[26] = target: C-X-C chemokine receptor type 2 (Homo sapiens) (UniProt P25025); experiment: Binding affinity to human CXCR2 receptor at 1 uM
[27] = target: Histamine H1 receptor (Homo sapiens) (UniProt P35367); experiment: Binding affinity to human histamine H1 receptor at 1 uM
[28] = target: Histamine H2 receptor (Homo sapiens) (UniProt P25021); experiment: Binding affinity to human histamine H2 receptor at 1 uM
[29] = target: Melanocortin receptor 4 (Homo sapiens) (UniProt P32245); experiment: Binding affinity to human MC4 receptor at 1 uM
[30] = target: Melatonin receptor type 1A (Homo sapiens) (UniProt P48039); experiment: Binding affinity to human ML1 receptor at 1 uM
[31] = target: Muscarinic acetylcholine receptor M1 (Homo sapiens) (UniProt P11229); experiment: Binding affinity to human muscarinic M1 receptor at 1 uM
[32] = target: Muscarinic acetylcholine receptor M2 (Homo sapiens) (UniProt P08172); experiment: Binding affinity to human muscarinic M2 receptor at 1 uM
[33] = target: Muscarinic acetylcholine receptor M3 (Homo sapiens) (UniProt P20309); experiment: Binding affinity to human muscarinic M3 receptor at 1 uM
[34] = target: Muscarinic acetylcholine receptor M4 (Homo sapiens) (UniProt P08173); experiment: Binding affinity to human muscarinic M4 receptor at 1 uM
[35] = target: Substance-K receptor (Homo sapiens) (UniProt P21452); experiment: Binding affinity to human NK2 receptor at 1 uM
[36] = target: Cannabinoid receptor 1 (Rattus norvegicus, UniProt P20272); experiment: Agonist activity at cannabinoid CB1 receptor at rat cerebellum by GTPgammaS binding assay; assay type: functional, tissue-based
[37] = target: Cannabinoid receptor 1 (Rattus norvegicus) (UniProt P20272); experiment: Agonist activity at cannabinoid CB1 receptor at rat cerebellum by GTPgammaS binding assay relative to HU210; assay type: functional
[38] = Drug level in rat blood at 130 mg/kg, po after 1 hr; assay type: ADME, organism-based; parameters: dose 130 mg/kg, route oral; conditions: read-out: Drug uptake
[39] = Drug level in rat blood at 130 mg/kg, po after 3 hrs; assay type: ADME, organism-based; parameters: dose 130 mg/kg, route oral; conditions: read-out: Drug uptake
[40] = target: Alpha-2A adrenergic receptor (Homo sapiens) (UniProt P08913); experiment: Binding affinity to adrenergic alpha2 receptor at 1 uM
[41] = target: Adenosine receptor A1 (Homo sapiens) (UniProt P30542); experiment: Binding affinity to human adenosine A1 receptor at 1 uM
[42] = target: Adenosine receptor A2a (Homo sapiens) (UniProt P29274); experiment: Binding affinity to human adenosine A2A receptor at 1 uM
[43] = target: Adenosine receptor A3 (Homo sapiens) (UniProt P0DMS8); experiment: Binding affinity to human adenosine A3 receptor at 1 uM
[44] = Binding affinity to adrenergic alpha1 receptor at 1 uM
[45] = target: Beta-1 adrenergic receptor (Homo sapiens) (UniProt P08588); experiment: Binding affinity to human beta-1 adrenergic receptor at 1 uM
[46] = target: Type-1 angiotensin II receptor (Homo sapiens) (UniProt P30556); experiment: Binding affinity to human AT1 receptor at 1 uM
[47] = Binding affinity to central benzodiazepine receptor at 1 uM
[48] = target: B2 bradykinin receptor (Homo sapiens) (UniProt P30411); experiment: Binding affinity to human bradykinin B2 receptor at 1 uM
[49] = target: Cholecystokinin receptor type A (Homo sapiens) (UniProt P32238); experiment: Binding affinity to human CCKA receptor at 1 uM
[50] = test system: Rattus norvegicus; experiment: Induction of hypothermia in rat at 130 mg/kg, po after 5 hrs; assay type: organism-based; parameters: dose 130 mg/kg, route oral; conditions: in vivo
[51] = test system: Rattus norvegicus; experiment: Induction of hypothermia in rat at 130 mg/kg, po after 1 to 3 hrs; assay type: organism-based; parameters: dose 130 mg/kg, route oral; conditions: in vivo

T2 sequence (P34972 whole entry): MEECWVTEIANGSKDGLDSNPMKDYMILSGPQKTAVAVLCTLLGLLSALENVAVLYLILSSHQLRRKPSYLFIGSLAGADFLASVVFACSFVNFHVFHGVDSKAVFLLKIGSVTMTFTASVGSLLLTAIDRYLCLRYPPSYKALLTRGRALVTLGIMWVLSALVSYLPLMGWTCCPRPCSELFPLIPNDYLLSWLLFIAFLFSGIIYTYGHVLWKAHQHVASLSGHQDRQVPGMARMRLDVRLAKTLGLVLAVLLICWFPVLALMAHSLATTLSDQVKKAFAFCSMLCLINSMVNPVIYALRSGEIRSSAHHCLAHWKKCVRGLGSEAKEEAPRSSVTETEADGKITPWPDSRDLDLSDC
T1 sequence (P21554 whole entry): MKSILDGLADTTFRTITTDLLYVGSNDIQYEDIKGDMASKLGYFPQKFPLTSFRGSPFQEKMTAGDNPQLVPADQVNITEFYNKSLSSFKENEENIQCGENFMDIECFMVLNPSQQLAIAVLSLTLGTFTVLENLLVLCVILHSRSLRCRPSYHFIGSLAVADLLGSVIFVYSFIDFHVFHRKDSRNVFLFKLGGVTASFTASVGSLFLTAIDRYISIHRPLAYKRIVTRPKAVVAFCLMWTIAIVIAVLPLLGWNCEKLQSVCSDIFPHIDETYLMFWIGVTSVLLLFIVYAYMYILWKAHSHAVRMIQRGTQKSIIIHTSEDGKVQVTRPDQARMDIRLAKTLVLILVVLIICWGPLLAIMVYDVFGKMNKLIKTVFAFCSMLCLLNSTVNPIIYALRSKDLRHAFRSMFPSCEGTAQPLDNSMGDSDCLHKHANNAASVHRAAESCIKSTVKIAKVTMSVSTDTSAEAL
Sequence of Cytochrome P450 2D6 (P10635 whole entry): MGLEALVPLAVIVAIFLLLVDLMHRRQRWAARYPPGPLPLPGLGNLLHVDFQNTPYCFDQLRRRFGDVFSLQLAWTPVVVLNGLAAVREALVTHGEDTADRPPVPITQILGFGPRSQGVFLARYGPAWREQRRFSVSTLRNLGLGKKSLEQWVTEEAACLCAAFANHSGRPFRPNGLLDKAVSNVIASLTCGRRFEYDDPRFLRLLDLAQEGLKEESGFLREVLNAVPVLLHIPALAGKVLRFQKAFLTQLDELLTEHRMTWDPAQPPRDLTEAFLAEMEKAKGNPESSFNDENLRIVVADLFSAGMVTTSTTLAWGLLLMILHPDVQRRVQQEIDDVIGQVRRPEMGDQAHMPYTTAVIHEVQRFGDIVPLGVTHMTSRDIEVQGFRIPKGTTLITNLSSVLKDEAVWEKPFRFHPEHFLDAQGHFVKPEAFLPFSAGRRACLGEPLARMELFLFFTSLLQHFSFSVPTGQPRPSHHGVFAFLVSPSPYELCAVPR
Sequence of Muscarinic acetylcholine receptor M4 (Homo sapiens) (P08173 whole entry): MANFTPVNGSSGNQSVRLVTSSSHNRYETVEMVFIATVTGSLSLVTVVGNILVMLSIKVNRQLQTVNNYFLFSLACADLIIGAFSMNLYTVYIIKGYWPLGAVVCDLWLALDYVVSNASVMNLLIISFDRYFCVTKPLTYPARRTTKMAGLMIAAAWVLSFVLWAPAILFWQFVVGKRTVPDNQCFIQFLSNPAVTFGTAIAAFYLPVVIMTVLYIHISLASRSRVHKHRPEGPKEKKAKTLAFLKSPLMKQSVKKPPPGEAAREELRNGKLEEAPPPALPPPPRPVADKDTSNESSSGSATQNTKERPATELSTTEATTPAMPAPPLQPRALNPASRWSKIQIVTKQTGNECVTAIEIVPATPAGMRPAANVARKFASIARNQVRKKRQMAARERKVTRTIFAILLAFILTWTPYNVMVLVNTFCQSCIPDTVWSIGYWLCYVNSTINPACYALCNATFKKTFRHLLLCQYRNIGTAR
Sequence of Muscarinic acetylcholine receptor M3 (Homo sapiens) (P20309 whole entry, looked up): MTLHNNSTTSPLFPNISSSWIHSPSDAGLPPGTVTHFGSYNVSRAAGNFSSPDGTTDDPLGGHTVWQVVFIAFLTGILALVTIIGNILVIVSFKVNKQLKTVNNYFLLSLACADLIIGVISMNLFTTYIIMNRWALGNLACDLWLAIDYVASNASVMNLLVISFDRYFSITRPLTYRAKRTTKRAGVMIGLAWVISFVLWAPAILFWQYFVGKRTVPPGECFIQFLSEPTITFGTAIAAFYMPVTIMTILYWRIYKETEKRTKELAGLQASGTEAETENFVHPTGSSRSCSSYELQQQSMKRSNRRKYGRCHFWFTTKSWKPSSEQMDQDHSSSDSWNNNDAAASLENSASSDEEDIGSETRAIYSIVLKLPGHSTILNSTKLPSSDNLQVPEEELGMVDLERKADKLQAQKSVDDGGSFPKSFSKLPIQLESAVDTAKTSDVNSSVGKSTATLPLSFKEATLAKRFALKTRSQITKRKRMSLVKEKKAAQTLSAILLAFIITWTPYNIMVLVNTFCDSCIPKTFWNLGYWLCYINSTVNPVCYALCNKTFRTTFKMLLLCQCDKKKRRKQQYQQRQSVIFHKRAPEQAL
Sequence of Adenosine receptor A1 (Homo sapiens) (P30542 whole entry): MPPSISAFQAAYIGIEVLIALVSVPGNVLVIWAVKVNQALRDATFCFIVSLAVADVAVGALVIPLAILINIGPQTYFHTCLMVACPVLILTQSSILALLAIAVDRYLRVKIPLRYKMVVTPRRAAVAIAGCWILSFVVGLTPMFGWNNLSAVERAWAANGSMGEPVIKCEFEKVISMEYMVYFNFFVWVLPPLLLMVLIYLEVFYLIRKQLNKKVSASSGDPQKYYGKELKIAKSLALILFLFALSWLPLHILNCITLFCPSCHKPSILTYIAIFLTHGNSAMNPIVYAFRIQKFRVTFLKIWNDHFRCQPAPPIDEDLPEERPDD
Sequence of Melatonin receptor type 1A (Homo sapiens) (P48039 whole entry): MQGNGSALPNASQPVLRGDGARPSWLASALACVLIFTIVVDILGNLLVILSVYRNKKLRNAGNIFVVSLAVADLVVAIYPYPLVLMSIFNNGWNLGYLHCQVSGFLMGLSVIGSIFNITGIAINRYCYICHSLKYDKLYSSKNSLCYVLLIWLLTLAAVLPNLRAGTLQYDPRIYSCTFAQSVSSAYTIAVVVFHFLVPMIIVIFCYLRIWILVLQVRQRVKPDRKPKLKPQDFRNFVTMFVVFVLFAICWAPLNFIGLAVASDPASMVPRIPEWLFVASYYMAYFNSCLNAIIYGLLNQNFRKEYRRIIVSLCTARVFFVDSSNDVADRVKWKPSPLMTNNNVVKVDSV
Sequence of Adenosine receptor A2a (Homo sapiens) (P29274 whole entry): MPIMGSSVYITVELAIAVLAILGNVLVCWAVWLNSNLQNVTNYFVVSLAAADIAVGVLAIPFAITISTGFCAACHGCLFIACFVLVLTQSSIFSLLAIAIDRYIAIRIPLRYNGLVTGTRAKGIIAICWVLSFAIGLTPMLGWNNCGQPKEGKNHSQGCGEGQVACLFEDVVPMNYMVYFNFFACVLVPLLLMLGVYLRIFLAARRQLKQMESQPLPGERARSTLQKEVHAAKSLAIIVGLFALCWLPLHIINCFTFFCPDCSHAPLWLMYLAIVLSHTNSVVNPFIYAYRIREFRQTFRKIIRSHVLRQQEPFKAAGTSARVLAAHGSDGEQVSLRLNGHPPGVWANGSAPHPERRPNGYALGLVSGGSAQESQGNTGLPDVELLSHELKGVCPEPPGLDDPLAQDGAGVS
Sequence of Cytochrome P450 2C19 (P33261 whole entry): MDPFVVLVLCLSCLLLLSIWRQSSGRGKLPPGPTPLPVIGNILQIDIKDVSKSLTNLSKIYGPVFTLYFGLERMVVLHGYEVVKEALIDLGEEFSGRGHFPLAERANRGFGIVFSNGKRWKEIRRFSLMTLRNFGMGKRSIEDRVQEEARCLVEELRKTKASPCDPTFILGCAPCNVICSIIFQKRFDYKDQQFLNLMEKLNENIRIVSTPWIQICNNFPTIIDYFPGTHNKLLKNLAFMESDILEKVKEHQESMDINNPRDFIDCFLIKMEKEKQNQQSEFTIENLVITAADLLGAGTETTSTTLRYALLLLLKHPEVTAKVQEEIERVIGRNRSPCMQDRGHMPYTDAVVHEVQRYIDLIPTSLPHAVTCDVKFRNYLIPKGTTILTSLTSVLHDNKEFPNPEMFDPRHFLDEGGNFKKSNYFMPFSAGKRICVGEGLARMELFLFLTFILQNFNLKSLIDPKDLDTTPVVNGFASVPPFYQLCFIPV
Sequence of Muscarinic acetylcholine receptor M1 (Homo sapiens) (P11229 whole entry): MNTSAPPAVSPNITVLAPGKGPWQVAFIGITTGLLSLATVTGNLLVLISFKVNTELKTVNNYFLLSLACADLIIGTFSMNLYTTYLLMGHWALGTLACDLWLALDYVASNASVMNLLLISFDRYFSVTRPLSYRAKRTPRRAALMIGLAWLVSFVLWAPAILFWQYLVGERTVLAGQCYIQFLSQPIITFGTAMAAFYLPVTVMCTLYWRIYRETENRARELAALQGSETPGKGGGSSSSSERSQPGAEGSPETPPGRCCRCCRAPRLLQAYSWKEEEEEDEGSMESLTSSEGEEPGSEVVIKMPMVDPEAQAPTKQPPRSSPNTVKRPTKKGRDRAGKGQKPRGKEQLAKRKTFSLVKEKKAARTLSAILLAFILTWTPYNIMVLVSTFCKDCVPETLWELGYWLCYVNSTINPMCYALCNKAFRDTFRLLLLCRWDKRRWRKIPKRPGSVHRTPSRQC
Sequence of Cytochrome P450 3A4 (P08684 whole entry): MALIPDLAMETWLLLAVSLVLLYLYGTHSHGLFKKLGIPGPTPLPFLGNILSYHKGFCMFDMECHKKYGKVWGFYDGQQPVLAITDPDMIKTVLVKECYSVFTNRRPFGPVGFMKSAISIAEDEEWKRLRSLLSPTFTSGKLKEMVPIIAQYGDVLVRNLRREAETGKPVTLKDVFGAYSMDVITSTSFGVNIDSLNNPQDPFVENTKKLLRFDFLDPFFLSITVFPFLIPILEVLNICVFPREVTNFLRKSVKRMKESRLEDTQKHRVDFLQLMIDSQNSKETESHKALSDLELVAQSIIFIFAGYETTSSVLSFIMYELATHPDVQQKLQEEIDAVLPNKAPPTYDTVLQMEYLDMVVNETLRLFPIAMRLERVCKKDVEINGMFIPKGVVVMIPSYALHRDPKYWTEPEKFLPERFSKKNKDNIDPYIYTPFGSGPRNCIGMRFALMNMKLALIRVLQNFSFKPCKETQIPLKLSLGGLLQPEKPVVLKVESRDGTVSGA

SMILES: Cc1c[nH]c2c(Nc3ccccc3OC(C)C)ncc(C(=O)N3CCOCC3)c12
- EC50 [1]: > 30 µM
- EC50 [2]: 0.188 µM
- Efficacy [3]: 73%
- Activity [4]: inactive
- Ratio EC50 [5]: > 100

SMILES: Cc1cn(C)c2c(Nc3cccc(Cl)c3)ncc(C(=O)N3CCOCC3)c12
- EC50 [1]: 10 µM
- Efficacy [6]: 45%
- EC50 [2]: 0.654 µM
- Efficacy [3]: 47%

SMILES: Cc1c[nH]c2c(Nc3ccccc3Cl)ncc(C(=O)N3CCOCC3)c12
- EC50 [1]: 15.8 µM
- Efficacy [6]: 56%
- EC50 [2]: 0.123 µM
- Efficacy [3]: 82%
- Activity [4]: inactive
- Ratio EC50 [5]: > 100

SMILES: Cc1c[nH]c2c(Nc3cccc(Cl)c3)ncc(C(=O)N3CCOCC3)c12
- EC50 [1]: 10 µM
- Efficacy [6]: 74%
- EC50 [2]: 0.011 µM
- Efficacy [3]: 82%
- CLint scaled [7]: 1.6 mL/min/kg
- CLint scaled [8]: 1.4 mL/min/kg
- IC50 [9]: 28 µM
- IC50 [10]: 4.7 µM
- IC50 [11]: 29 µM
- IC50 [12]: 14 µM
- IC50 [13]: 48 µM
- solubility [14]: 160 µg/mL (≈ 431 µM)
- pKa [15]: 5.8
- ED50 [16]: 0.12 mg/kg
- Activity [17]: inactive
- Kp [18]: < 0.05
- Ratio [19]: 74
- Ratio EC50 [5]: 1000

SMILES: O=C(NCC1CCOCC1)c1cnc(Nc2ccc(Cl)cc2Cl)nc1C(F)(F)F [GW842166X]
- EC50 [1]: > 30 µM
- solubility [14]: 10 µg/mL (≈ 22.3 µM)

SMILES: CS(=O)(=O)c1ccc(C2=C(c3ccccc3)C(=O)OC2)cc1 [ROFECOXIB]
- Activity [20]: Active
- Ratio [19]: 74

SMILES: Cc1c[nH]c2c(Nc3cccc(Cl)c3)ncc(C(=O)NCC3CCOCC3)c12
- EC50 [1]: > 30 µM
- EC50 [2]: 0.265 µM
- Efficacy [3]: 95%

SMILES: Cc1c[nH]c2c(Nc3cccc(Cl)c3)ncc(C(=O)N3CCCCC3)c12
- EC50 [1]: 4 µM
- Efficacy [6]: 32%
- EC50 [2]: 0.014 µM
- Efficacy [3]: 73%

SMILES: COc1ccccc1Nc1ncc(C(=O)N2CCOCC2)c2c(C)c[nH]c12
- EC50 [1]: > 10 µM
- EC50 [2]: 0.349 µM
- Efficacy [3]: 72%
- Activity [4]: inactive
- Ratio EC50 [5]: > 100

SMILES: Cn1ccc2c(Nc3cccc(Cl)c3)ncc(Br)c21
- Activity [21]: < 10%
- Activity [22]: < 10%
- Activity [23]: < 10%
- Activity [24]: < 10%
- Activity [25]: < 10%
- Activity [26]: < 10%
- Activity [27]: < 10%
- Activity [28]: < 10%
- Activity [29]: < 10%
- Activity [30]: < 10%
- Activity [31]: < 10%
- Activity [32]: < 10%
- Activity [33]: < 10%
- Activity [34]: < 10%
- Activity [35]: < 10%
- EC50 [36]: 2.51 µM
- Efficacy [37]: 59%
- concentration at 1 h [38]: 10.9 µM
- concentration at 3 h [39]: 14.7 µM
- Activity [40]: 25%
- Activity [41]: < 10%
- Activity [42]: < 10%
- Activity [43]: < 10%
- Activity [44]: < 10%
- Activity [45]: < 10%
- Activity [46]: < 10%
- Activity [47]: < 10%
- Activity [48]: < 10%
- Activity [49]: < 10%
- Activity [50]: Toxic
- Activity [51]: Non-toxic

From ChEMBL document CHEMBL1156052, “Discovery of 1-[4-(3-chlorophenylamino)-1-methyl-1H-pyrrolo[3,2-c]pyridin-7-yl]-1-morpholin-4-ylmethanone (GSK554418A), a brain penetrant 5-azaindole CB2 agonist for the treatment of chronic pain” (J Med Chem, 2009)
